From patent US10966426B2, “Herbicidal compositions comprising phenylpyrimidines” (BASF SE, priority 2016, dated 2021)

What was measured:
Assay type in all cases: in vivo
[1] = system: Brachiaria decumbens; assay: greenhouse post-emergence treatment, BRADC; conditions: Urochloa decumbens, 480 h, 20 DAT, BRADC
Procedure, shortened: (§1)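 Plants were grown in loamy sand with about 3.0% humus to 3–15 cm height, then sprayed with actives formulated as 10% by weight emulsion concentrates in water. Held at 10-25° C. or 20-35° C. by species for 2 to 4 weeks; damage scored 0 (none) to 100 (complete destruction).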

[2] = system: Poa annua; assay: greenhouse post-emergence treatment, POAAN; conditions: Poa annua, 480 h, POAAN, 20 DAT
Procedure, shortened: as §1

[3] = system: Bromus sterilis; assay: greenhouse post-emergence treatment, BROST; conditions: Bromus sterilis, 480 h, 20 DAT, BROST
Procedure, shortened: (§2)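 Pot trial in loamy sand with about 3.0% humus; plants sown in place or transplanted as seedlings a few days before treatment, kept at 10-25° C or 20-35° C by species, water as solvent. Damage scored 0 (none) to 100 (full destruction) over 2 to 4 weeks; combination expectation by Colby, E=X+Y−(X·Y/100).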

[4] = system: Papaver rhoeas; assay: greenhouse post-emergence treatment, PAPRH; conditions: Papaver rhoeas, 480 h, 20 DAT, PAPRH
Procedure, shortened: (§3)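 Visual herbicidal effect (0–100) recorded over a 2 to 4 week test period after foliar treatment at plant heights of 3 to 15 cm. Expected combination effects derived by the Colby formula from single-component effects X and Y.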

[5] = system: Setaria viridis; assay: greenhouse post-emergence treatment, SETVI; conditions: Setaria viridis, 480 h, 20 DAT, SETVI
Procedure, shortened: as §2

[6] = system: Alopecurus myosuroides; assay: greenhouse post-emergence treatment, ALOMY; conditions: Alopecurus myosuroides, 480 h, 20 DAT, ALOMY
Procedure, shortened: as §2

[7] = system: Matricaria chamomilla; assay: greenhouse post-emergence treatment, MATCH; conditions: Matricaria chamomilla, 480 h, 20 DAT, MATCH
Procedure, shortened: as §3

[8] = system: Ambrosia elatior; assay: greenhouse post-emergence treatment, AMBEL; conditions: AMBEL, 20 DAT
Procedure, shortened: as §1

[9] = system: Avena fatua; assay: greenhouse post-emergence treatment, AVEFA; conditions: Avena fatua, 480 h, AVEFA, 20 DAT
Procedure, shortened: as §2

[10] = system: Polygonum convolvulus; assay: greenhouse post-emergence treatment, POLCO; conditions: Fallopia convolvulus, 480 h, 20 DAT, POLCO
Procedure, shortened: as §3

[11] = 30 gai/ha (SL 480 g/l), Table X3, read-out: % activity, solo application
[12] = 60 gai/ha (SL 480 g/l), Table X3, read-out: % activity, solo application
[13] = 120 gai/ha (SL 480 g/l), Table X3, read-out: % activity, solo application
[14] = 240 gai/ha (SL 480 g/l), Table X3, read-out: % activity, solo application
[15] = solo pyridate (WP 45%) 112.5 gai/ha
[16] = solo pyridate (WP 45%) 225 gai/ha
[17] = solo pyridate (WP 45%) 450 gai/ha
[18] = solo pyridate (WP 45%) 900 gai/ha

In the case of `CC(C)N1C(=O)c2ccccc2NS1(=O)=O` [bentazon], the inhibition at 30 g/ha [1, 11] is reported as 0%, the inhibition at 60 g/ha [1, 12] is reported as 0% and the inhibition at 120 g/ha [1, 13] is reported as 0%. For the same molecule, the pest or weed control at 30 g/ha ([1]; bentazon solo 30 gai/ha) was 0%, the pest or weed control at 60 g/ha ([1]; bentazon solo 60 gai/ha) was 0% and the pest or weed control at 240 g/ha ([1]; bentazon solo 240 gai/ha) was 20%. It also gave a pest or weed control at 60 g/ha ([2]; bentazon solo 60 gai/ha) of 0%, an inhibition at 60 g/ha [3, 12] of 0% and a pest or weed control at 30 g/ha ([3]; bentazon solo 30 gai/ha) of 0%. For the same molecule, the pest or weed control at 60 g/ha ([3]; bentazon solo 60 gai/ha) was 0%, the pest or weed control at 120 g/ha ([3]; bentazon solo 120 gai/ha) was 0% and the pest or weed control at 240 g/ha ([3]; bentazon solo 240 gai/ha) was 0%. The inhibition at 120 g/ha [4, 13] was 0%, the pest or weed control at 30 g/ha ([4]; bentazon solo 30 gai/ha) was 0% and the pest or weed control at 60 g/ha ([4]; bentazon solo 60 gai/ha) was 0%. For the same molecule, the pest or weed control at 120 g/ha ([4]; bentazon solo 120 gai/ha) was 0%, the inhibition at 60 g/ha [5, 12] was 0% and the inhibition at 240 g/ha [5, 14] was 30%. The inhibition at 120 g/ha [6, 13] was 0%, the inhibition at 240 g/ha [6, 14] was 0% and the pest or weed control at 60 g/ha ([6]; bentazon solo 60 gai/ha) was 0%. It also gave a pest or weed control at 240 g/ha ([6]; bentazon solo 240 gai/ha) of 0%, an inhibition at 30 g/ha [7, 11] of 20% and an inhibition at 60 g/ha [7, 12] of 30%. The pest or weed control at 30 g/ha ([7]; bentazon solo 30 gai/ha) was 0%, the pest or weed control at 60 g/ha ([7]; bentazon solo 60 gai/ha) was 0% and the pest or weed control at 120 g/ha ([7]; bentazon solo 120 gai/ha) was 0%. For the same molecule, the “% activity” value ([8]; bentazon solo 30 gai/ha) was 60% and the “% activity” value ([8]; bentazon solo 60 gai/ha) was 60%.
`CCCCCCCCSC(=O)Oc1cc(Cl)nnc1-c1ccccc1` [pyridate] was tested, and the pest or weed control at 112.5 g/ha [1, 15] was 0%, the pest or weed control at 225 g/ha [1, 16] was 20% and the pest or weed control at 450 g/ha [1, 17] was 20%. For the same molecule, the pest or weed control at 900 g/ha [1, 18] was 50%, the inhibition at 112.5 g/ha ([1]; pyridate solo 112.5 gai/ha) was 0% and the inhibition at 225 g/ha ([1]; pyridate solo 225 gai/ha) was 20%. The inhibition at 450 g/ha ([1]; pyridate solo 450 gai/ha) was 20%, the inhibition at 900 g/ha ([1]; pyridate solo 900 gai/ha) was 50% and the pest or weed control at 112.5 g/ha [9, 15] was 0%. For the same molecule, the pest or weed control at 225 g/ha [9, 16] was 0%, the pest or weed control at 450 g/ha [9, 17] was 10% and the pest or weed control at 900 g/ha [9, 18] was 30%. It also gave an inhibition at 112.5 g/ha ([9]; pyridate solo 112.5 gai/ha) of 0%, an inhibition at 225 g/ha ([9]; pyridate solo 225 gai/ha) of 0% and an inhibition at 450 g/ha ([9]; pyridate solo 450 gai/ha) of 10%. It also gave a pest or weed control at 112.5 g/ha [2, 15] of 0%, a pest or weed control at 225 g/ha [2, 16] of 0% and a pest or weed control at 450 g/ha [2, 17] of 0%. The pest or weed control at 112.5 g/ha [3, 15] was 0%, the pest or weed control at 225 g/ha [3, 16] was 0% and the pest or weed control at 900 g/ha [3, 18] was 0%. It also gave a pest or weed control at 112.5 g/ha [4, 15] of 0%, a pest or weed control at 225 g/ha [4, 16] of 10% and a pest or weed control at 450 g/ha [4, 17] of 50%. The pest or weed control at 900 g/ha [4, 18] was 70%, the inhibition at 112.5 g/ha ([4]; pyridate solo 112.5 gai/ha) was 0% and the inhibition at 225 g/ha ([4]; pyridate solo 225 gai/ha) was 10%. It also gave an inhibition at 450 g/ha ([4]; pyridate solo 450 gai/ha) of 50%, an inhibition at 900 g/ha ([4]; pyridate solo 900 gai/ha) of 70% and a pest or weed control at 112.5 g/ha [5, 15] of 15%. For the same molecule, the pest or weed control at 225 g/ha [5, 16] was 25%, the pest or weed control at 450 g/ha [5, 17] was 65% and the inhibition at 225 g/ha ([5]; pyridate solo 225 gai/ha) was 25%. It also gave an inhibition at 450 g/ha ([5]; pyridate solo 450 gai/ha) of 65%, an inhibition at 900 g/ha ([5]; pyridate solo 900 gai/ha) of 80% and a pest or weed control at 900 g/ha [6, 18] of 20%. For the same molecule, the inhibition at 112.5 g/ha ([6]; pyridate solo 112.5 gai/ha) was 0%, the inhibition at 225 g/ha ([6]; pyridate solo 225 gai/ha) was 0% and the inhibition at 450 g/ha ([6]; pyridate solo 450 gai/ha) was 0%. The inhibition at 900 g/ha ([6]; pyridate solo 900 gai/ha) was 20%, the pest or weed control at 112.5 g/ha [7, 15] was 0% and the pest or weed control at 225 g/ha [7, 16] was 0%. It also gave a pest or weed control at 450 g/ha [7, 17] of 40%, an inhibition at 112.5 g/ha ([7]; pyridate solo 112.5 gai/ha) of 0% and an inhibition at 225 g/ha ([7]; pyridate solo 225 gai/ha) of 0%. For the same molecule, the inhibition at 450 g/ha ([7]; pyridate solo 450 gai/ha) was 40%, the “% activity” value [8, 15] was 0% and the “% activity” value [8, 16] was 10%. It also gave an inhibition at 112.5 g/ha ([8]; Ambrosia artemisiifolia, 480 h, pyridate solo 112.5 gai/ha) of 0%, an inhibition at 225 g/ha ([8]; Ambrosia artemisiifolia, 480 h, pyridate solo 225 gai/ha) of 10% and an inhibition at 450 g/ha ([8]; Ambrosia artemisiifolia, 480 h, pyridate solo 450 gai/ha) of 85%. The inhibition at 112.5 g/ha ([10]; pyridate solo 112.5 gai/ha) was 40% and the inhibition at 225 g/ha ([10]; pyridate solo 225 gai/ha) was 50%.
